Experiments:
barnyardgrass = assay: Test A pre-/postemergence greenhouse test; assay type: in vivo, Echinochloa crus-galli; conditions: for Barnyardgrass plant response rating: 0 to 100 scale
How it was run: (§1)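 Herbicidal effect is a visual injury score given about ten days post-treatment by comparison with untreated controls. Preemergence plots received a directed spray onto sown loam–sand soil; postemergence plants, at the one- to two-leaf stage and 2–10 cm tall, were sprayed at the same time.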

redroot pigweed = assay: Test A pre-/postemergence greenhouse test; assay type: in vivo, Amaranthus retroflexus; conditions: for Pigweed plant response rating: 0 to 100 scale
How it was run: as §1

velvetleaf [1] = assay: Test A pre-/postemergence greenhouse test; assay type: in vivo, Abutilon theophrasti; conditions: for Velvetleaf plant response rating: 0 to 100 scale
How it was run: as §1

downy brome = assay: Test C pre-/postemergence test; assay type: in vivo, Bromus tectorum
How it was run: (§2)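 Test chemicals were formulated with surfactant in a non-phytotoxic solvent and sprayed both on freshly planted seeds (preemergence) and on 1- to 4-leaf plants of 2–18 cm (postemergence). Flooded-paddy pots received compound directly into 3 cm of standing water, maintained for the test.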

green foxtail = assay: Test C pre-/postemergence test; assay type: in vivo, Setaria viridis; conditions: Preemergence
How it was run: as §2

wild oat = assay: Test C pre-/postemergence test; assay type: in vivo, Avena fatua; conditions: Preemergence
How it was run: as §2

Surinam grass = assay: Test C pre-/postemergence test; assay type: in vivo, Brachiaria decumbens; conditions: Preemergence
How it was run: as §2

cocklebur = assay: Test C pre-/postemergence test; assay type: in vivo, Xanthium strumarium
How it was run: as §2

crabgrass = assay: Test C pre-/postemergence test; assay type: in vivo, Digitaria sanguinalis; conditions: Preemergence
How it was run: as §2

giant foxtail = assay: Test C pre-/postemergence test; assay type: in vivo, Setaria faberii; conditions: Preemergence
How it was run: as §2

johnsongrass = assay: Test C pre-/postemergence test; assay type: in vivo, Sorghum halepense; conditions: Preemergence
How it was run: as §2

kochia = assay: Test C pre-/postemergence test; assay type: in vivo, Kochia scoparia; conditions: Preemergence
How it was run: as §2

lambsquarters = assay: Test C pre-/postemergence test; assay type: in vivo, Chenopodium album; conditions: Preemergence
How it was run: as §2

eastern black nightshade = assay: Test C pre-/postemergence test; assay type: in vivo, Solanum ptycanthum; conditions: Preemergence
How it was run: as §2

common ragweed = assay: Test C pre-/postemergence test; assay type: in vivo, Ambrosia elation; conditions: Preemergence
How it was run: as §2

velvetleaf [2] = assay: Test C pre-/postemergence test; assay type: in vivo, Abutilon theophrasti; conditions: Preemergence
How it was run: as §2

rice = assay: Test C flooded paddy test; assay type: in vivo, Oryza sativa; conditions: Flood
How it was run: (§3)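 Compound was added to standing water 3 cm above soil, flood maintained, and plants held in a greenhouse before visual scoring against controls at 13 to 15 days.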

duck salad = assay: Test C flooded paddy test; assay type: in vivo, Heteranthera limosa; conditions: Flood
How it was run: as §3

[3] = Postemergence, 125 g ai/ha, 0 is no effect, 100 is complete control
[4] = Postemergence, 500 g ai/ha, 0 is no effect, 100 is complete control
[5] = Preemergence, 125 g ai/ha, 0 no effect, 100 complete control
[6] = Preemergence, 500 g ai/ha, 0 to 100 scale where 0 is no effect and 100 is complete control
[7] = 62 g ai/ha, Preemergence, scale 0 to 100
[8] = Preemergence, 31 g ai/ha, scale 0 to 100 (0 no effect, 100 complete control)
[9] = preemergence, 125 g ai/ha, scale 0 (no effect) to 100 (complete control)
[10] = 31 g ai/ha, scale 0 to 100 (0 no effect, 100 complete control)
[11] = 62 g ai/ha, scale 0 to 100, 0 no effect, 100 complete control, 13 to 15 days
[12] = 125 g ai/ha, scale 0 to 100, 0 no effect, 100 complete control, 13 to 15 days
[13] = 250 g ai/ha, scale 0 to 100, 0 no effect, 100 complete control, 13 to 15 days

Cc1cc[n+]([O-])c([S+]([O-])Cc2c(C(F)(F)F)nn(C)c2OCC(F)(F)F)c1 (racemic) [Compound 30]
Barnyardgrass plant response rating (barnyardgrass; [3]): 70 | Barnyardgrass plant response rating (barnyardgrass; [4]): 90 | Barnyardgrass plant response rating (barnyardgrass; [5]): 100 | Plant response rating, Barnyardgrass (barnyardgrass; [6]): 100 | Pigweed plant response rating (redroot pigweed; [3]): 90 | Pigweed plant response rating (redroot pigweed; [4]): 100 | Pigweed plant response rating (redroot pigweed; [5]): 100 | Plant response rating, Pigweed (redroot pigweed; [6]): 100 | Velvetleaf plant response rating (velvetleaf [1]; [3]): 50 | Velvetleaf plant response rating (velvetleaf [1]; [4]): 70 | Velvetleaf plant response rating (velvetleaf [1]; [5]): 90 | Plant response rating, Velvetleaf (velvetleaf [1]; [6]): 100 | Bromegrass, Downy plant response rating (downy brome; [7]): 0 | Plant response rating, Bromegrass, Downy (downy brome; [8]): 0 | Plant response rating (0 to 100), Bromegrass, Downy (downy brome; Preemergence, 250 g ai/ha): 60 | Bromegrass, Downy plant response rating (downy brome; [9]): 60 | Foxtail, Green plant response rating (green foxtail; 62 g ai/ha, scale 0 to 100): 100 | Plant response rating, Foxtail, Green (green foxtail; [10]): 100 | Plant response rating (0 to 100), Foxtail, Green (green foxtail; 250 g ai/ha): 100 | Oat, Wild plant response rating (wild oat; 62 g ai/ha, scale 0 to 100): 60 | Plant response rating, Oat, Wild (wild oat; [10]): 10 | Surinam Grass plant response rating (Surinam grass; 62 g ai/ha, scale 0 to 100): 100 | Plant response rating, Surinam Grass (Surinam grass; [10]): 60 | Cocklebur plant response rating (cocklebur; [7]): 0 | Plant response rating, Cocklebur (cocklebur; [8]): 0 | Plant response rating (0 to 100), Cocklebur (cocklebur; Preemergence, 250 g ai/ha): 85 | Cocklebur plant response rating (cocklebur; [9]): 80 | Crabgrass, Large plant response rating (crabgrass; 62 g ai/ha, scale 0 to 100): 98 | Plant response rating, Crabgrass, Large (crabgrass; [10]): 98 | Plant response rating (0 to 100), Crabgrass, Large (crabgrass; 250 g ai/ha): 100 | Foxtail, Giant plant response rating (giant foxtail; 62 g ai/ha, scale 0 to 100): 100 | Plant response rating, Foxtail, Giant (giant foxtail; [10]): 100 | Plant response rating (0 to 100), Foxtail, Giant (giant foxtail; 250 g ai/ha): 100 | Johnsongrass plant response rating (johnsongrass; 62 g ai/ha, scale 0 to 100): 100 | Plant response rating, Johnsongrass (johnsongrass; [10]): 85 | Plant response rating (0 to 100), Johnsongrass (johnsongrass; 250 g ai/ha): 100 | Kochia plant response rating (kochia; 62 g ai/ha, scale 0 to 100): 100 | Plant response rating, Kochia (kochia; [10]): 100 | Lambsquarters plant response rating (lambsquarters; 62 g ai/ha, scale 0 to 100): 100 | Plant response rating, Lambsquarters (lambsquarters; [10]): 100 | Nightshade plant response rating (eastern black nightshade; 62 g ai/ha, scale 0 to 100): 100 | Plant response rating, Nightshade (eastern black nightshade; [10]): 100 | Ragweed plant response rating (common ragweed; 62 g ai/ha, scale 0 to 100): 60 | Plant response rating, Ragweed (common ragweed; [10]): 0 | Velvetleaf plant response rating (velvetleaf [2]; 62 g ai/ha, scale 0 to 100): 100 | Plant response rating, Velvetleaf (velvetleaf [2]; [10]): 70 | Plant response rating, Rice (rice; [10]): 0 | Plant response rating, Rice (rice; [11]): 0 | Plant response rating, Rice (rice; [12]): 20 | Plant response rating, Rice (rice; [13]): 80 | Plant response rating, Ducksalad (duck salad; [10]): 65 | Plant response rating, Ducksalad (duck salad; [11]): 75 | Plant response rating, Ducksalad (duck salad; [12]): 100 | Plant response rating, Ducksalad (duck salad; [13]): 100

Reference: US20100298141A1, “SUBSTITUTED PYRIDINE N-OXIDE HERBICIDES” (E. I. DU PONT DE NEMOURS AND COMPANY, priority 2007, published 2010)
